≈ marks a conversion by molar mass, not a printed value.
How the values were obtained:
[1] = molecular target: T1, Multidrug efflux pump subunit AcrB (Escherichia coli (strain K12)) (UniProt P31224); test: Inhibition of AcrB in multidrug-resistant Escherichia coli BW25113 assessed as potentiation of levofloxacin-induced antibacterial activity by measuring levofloxacin MIC at 512 ug/ml by checkerboard titration method (reference value: 0.06 ug/ml); settings: dose 512.0 µg/ml
T1 sequence (whole entry): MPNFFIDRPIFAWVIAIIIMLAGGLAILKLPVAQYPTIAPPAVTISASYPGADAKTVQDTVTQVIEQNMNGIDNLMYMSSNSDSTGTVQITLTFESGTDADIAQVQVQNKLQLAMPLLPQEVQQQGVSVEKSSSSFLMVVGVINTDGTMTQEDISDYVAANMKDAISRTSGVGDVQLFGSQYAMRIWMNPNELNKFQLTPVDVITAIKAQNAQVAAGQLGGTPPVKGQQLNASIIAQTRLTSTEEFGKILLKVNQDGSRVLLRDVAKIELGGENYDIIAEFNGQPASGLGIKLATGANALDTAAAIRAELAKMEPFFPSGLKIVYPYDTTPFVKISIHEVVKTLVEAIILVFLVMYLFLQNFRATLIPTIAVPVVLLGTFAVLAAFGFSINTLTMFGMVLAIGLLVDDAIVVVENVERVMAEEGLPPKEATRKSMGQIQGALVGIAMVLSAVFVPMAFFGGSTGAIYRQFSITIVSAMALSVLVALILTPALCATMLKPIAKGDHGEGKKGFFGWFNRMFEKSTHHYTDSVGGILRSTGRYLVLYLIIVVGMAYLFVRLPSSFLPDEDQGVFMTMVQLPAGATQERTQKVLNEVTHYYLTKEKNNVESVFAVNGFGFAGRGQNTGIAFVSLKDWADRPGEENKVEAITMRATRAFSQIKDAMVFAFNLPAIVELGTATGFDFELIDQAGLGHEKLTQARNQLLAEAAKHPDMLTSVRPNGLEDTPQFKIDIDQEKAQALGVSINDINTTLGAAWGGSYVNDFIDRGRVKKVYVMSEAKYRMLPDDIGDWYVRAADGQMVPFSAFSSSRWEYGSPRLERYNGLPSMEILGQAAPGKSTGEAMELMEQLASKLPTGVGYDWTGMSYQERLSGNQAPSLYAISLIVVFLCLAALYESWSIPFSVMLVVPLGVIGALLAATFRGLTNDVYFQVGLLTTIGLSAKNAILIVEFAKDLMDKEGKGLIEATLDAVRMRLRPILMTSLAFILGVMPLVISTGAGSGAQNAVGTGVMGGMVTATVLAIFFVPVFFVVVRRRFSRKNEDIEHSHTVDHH

[2] = molecular target: T1, Multidrug efflux pump subunit AcrB (Escherichia coli (strain K12)); test: Inhibition of AcrB in multidrug-resistant Escherichia coli BW25113 assessed as potentiation of tetraphenylphosphonium-induced antibacterial activity by measuring tetraphenylphosphonium MIC at 512 ug/ml by checkerboard titration method (reference value: 1024 ug/ml); settings: dose 512.0 µg/ml
[3] = molecular target: T1, Multidrug efflux pump subunit AcrB (Escherichia coli (strain K12)); test: Inhibition of AcrB in multidrug-resistant Escherichia coli BW25113 assessed as potentiation of levofloxacin-induced antibacterial activity by measuring levofloxacin MIC at 256 ug/ml by checkerboard titration method (reference value: 0.06 ug/ml); settings: dose 256.0 µg/ml
[4] = molecular target: T1, Multidrug efflux pump subunit AcrB (Escherichia coli (strain K12)); settings: Escherichia coli BW25113; dose 512.0 µg/ml
[5] = molecular target: T1, Multidrug efflux pump subunit AcrB (Escherichia coli (strain K12)); test: Inhibition of AcrB in multidrug-resistant Escherichia coli BW25113 assessed as potentiation of erythromycin-induced antibacterial activity by measuring erythromycin MIC at 512 ug/ml by checkerboard titration method (reference value: 64 ug/ml); settings: dose 512.0 µg/ml
[6] = molecular target: T1, Multidrug efflux pump subunit AcrB (Escherichia coli (strain K12)); test: Inhibition of AcrB in multidrug-resistant Escherichia coli BW25113 assessed as potentiation of erythromycin-induced antibacterial activity by measuring erythromycin MIC at 256 ug/ml by checkerboard titration method (reference value: 64 ug/ml); settings: dose 256.0 µg/ml
[7] = molecular target: T1, Multidrug efflux pump subunit AcrB (Escherichia coli (strain K12)); test: Inhibition of AcrB in multidrug-resistant Escherichia coli BW25113 assessed as potentiation of chloramphenicol-induced antibacterial activity by measuring chloramphenicol MIC at 256 ug/ml by checkerboard titration method (reference value: 8 ug/ml); settings: dose 256.0 µg/ml
[8] = molecular target: T1, Multidrug efflux pump subunit AcrB (Escherichia coli (strain K12)); settings: Escherichia coli BW25113; dose 256.0 µg/ml
[9] = molecular target: T1, Multidrug efflux pump subunit AcrB (Escherichia coli (strain K12)); test: Inhibition of AcrB in multidrug-resistant Escherichia coli BW25113 assessed as potentiation of chloramphenicol-induced antibacterial activity by measuring chloramphenicol MIC at 512 ug/ml by checkerboard titration method (reference value: 8 ug/ml); settings: dose 512.0 µg/ml
[10] = molecular target: T1, Multidrug efflux pump subunit AcrB (Escherichia coli (strain K12)); test: Inhibition of AcrB in multidrug-resistant Escherichia coli BW25113 assessed as potentiation of tetraphenylphosphonium-induced antibacterial activity by measuring tetraphenylphosphonium MIC at 256 ug/ml by checkerboard titration method (reference value: 1024 ug/ml); settings: dose 256.0 µg/ml

## CC(C)CCOc1cc(C(N)=O)cc2ccccc12
[1]
  MIC: 0.06 µg/mL
[2]
  MIC: 256 µg/mL
[3]
  MIC: 0.06 µg/mL
[4]
  MIC: 16 µg/mL (≈ 62.2 µM)
[5]
  MIC: 32 µg/mL
[6]
  MIC: 64 µg/mL
[7]
  MIC: 8 µg/mL
[8]
  MIC: 16 µg/mL (≈ 62.2 µM)
[9]
  MIC: 4 µg/mL
[10]
  MIC: 512 µg/mL
